Publication PMC6315506 (Viruses, 2018)

Experiments:
Conditions in all cases: 10 µM
HIV-1/H5N1 pseudovirus = experiment: organism not typed; type: cell-based, influenza A virus A/Goose/Qinghai/59/05 (H5N1)
HIV-1/LASV pseudovirus = experiment: microbe, parasite or virus in culture; type: cell-based
HIV-1/EBOV pseudovirus = tested on: HIV-1/EBOV pseudovirus
A549 cells = tested on: A549 cells

With `COc1nc2ccccc2cc1C(Nc1ccccc1NCCN(C)C)c1ccccc1` (centres unmarked) [SYL1621] the “Inhibition HIV/H5N1” value (HIV-1/H5N1 pseudovirus) was 97.96%, the “Inhibition HIV/LASV” value (HIV-1/LASV pseudovirus) was 99.14% and the “Inhibition HIV/EBOV” value (HIV-1/EBOV pseudovirus) was 99.90%. The “Cell Viability” value (A549 cells) was 52.36%.
`COc1nc2ccc(Br)cc2cc1C(Nc1ccccc1OCCN(C)C)c1ccccc1` (centres unmarked) [SYL1622] was tested, and the “Inhibition HIV/H5N1” value (HIV-1/H5N1 pseudovirus) was 96.99%, the “Inhibition HIV/LASV” value (HIV-1/LASV pseudovirus) was 83.38% and the “Inhibition HIV/EBOV” value (HIV-1/EBOV pseudovirus) was 99.12%. For the same compound, the “Cell Viability” value (A549 cells) was 77.49%.
In the case of `COc1nc2ccc(Br)cc2cc1C(c1ccccc1)N(CCN(C)C)c1cccc2ccccc12` (centres unmarked) [SYL1623], the “Inhibition HIV/H5N1” value (HIV-1/H5N1 pseudovirus) is reported as 105.28%, the “Inhibition HIV/LASV” value (HIV-1/LASV pseudovirus) is reported as 15.39% and the “Inhibition HIV/EBOV” value (HIV-1/EBOV pseudovirus) is reported as 97.68%. For the same compound, the “Cell Viability” value (A549 cells) was 87.19%.
With `COc1nc2ccccc2cc1C(c1ccccc1)n1c(=O)n(CCN(C)C)c2ccccc21` (centres unmarked) [SYL1624] the “Inhibition HIV/H5N1” value (HIV-1/H5N1 pseudovirus) was 53.54%, the “Inhibition HIV/LASV” value (HIV-1/LASV pseudovirus) was 85.88% and the “Inhibition HIV/EBOV” value (HIV-1/EBOV pseudovirus) was 99.82%. For the same compound, the “Cell Viability” value (A549 cells) was 86.63%.
`COc1nc2ccccc2cc1C(c1ccccc1)n1c(=O)n(CCCN(C)C)c2ccccc21` (centres unmarked) [SYL1625] was tested, and the “Inhibition HIV/H5N1” value (HIV-1/H5N1 pseudovirus) was -0.36%, the “Inhibition HIV/LASV” value (HIV-1/LASV pseudovirus) was 87.77% and the “Inhibition HIV/EBOV” value (HIV-1/EBOV pseudovirus) was 99.90%. For the same compound, the “Cell Viability” value (A549 cells) was 86.95%.
In the case of `CC(=NOCCN(C)C)c1cc2ccccc2nc1Oc1cccc2ccccc12` [SYL1626], the “Inhibition HIV/H5N1” value (HIV-1/H5N1 pseudovirus) is reported as 44.19%, the “Inhibition HIV/LASV” value (HIV-1/LASV pseudovirus) is reported as 85.39% and the “Inhibition HIV/EBOV” value (HIV-1/EBOV pseudovirus) is reported as 99.66%. For the same compound, the “Cell Viability” value (A549 cells) was 86.91%.
In the case of `CN(C)CCC=C(c1ccccc1)c1cc2ccccc2nc1Oc1cccc2ccccc12.Cl` [SYL1627], the “Inhibition HIV/H5N1” value (HIV-1/H5N1 pseudovirus) is reported as 49.35%, the “Inhibition HIV/LASV” value (HIV-1/LASV pseudovirus) is reported as 87.33% and the “Inhibition HIV/EBOV” value (HIV-1/EBOV pseudovirus) is reported as 99.84%. For the same compound, the “Cell Viability” value (A549 cells) was 89.09%.
With `COc1nc2ccc(Br)cc2cc1C(c1ccccc1)N1CCN(C)c2ccccc21` (centres unmarked) [SYL1628] the “Inhibition HIV/H5N1” value (HIV-1/H5N1 pseudovirus) was -5.51%, the “Inhibition HIV/LASV” value (HIV-1/LASV pseudovirus) was 86.50% and the “Inhibition HIV/EBOV” value (HIV-1/EBOV pseudovirus) was 99.91%. For the same compound, the “Cell Viability” value (A549 cells) was 86.44%.
For `COc1nc2ccc(Br)cc2cc1C(c1ccccc1)n1cc(CN(C)C)c2ccccc21` (centres unmarked) [SYL1629], the “Inhibition HIV/H5N1” value (HIV-1/H5N1 pseudovirus) was 29.75%, the “Inhibition HIV/LASV” value (HIV-1/LASV pseudovirus) was 88.22% and the “Inhibition HIV/EBOV” value (HIV-1/EBOV pseudovirus) was 99.91%. The “Cell Viability” value (A549 cells) was 90.62%.
In the case of `CN(C)CCC(O)(c1cccc(F)c1)C1c2ccccc2Sc2ccccc21` (centres unmarked) [SYL1634], the “Inhibition HIV/H5N1” value (HIV-1/H5N1 pseudovirus) is reported as 83.95%, the “Inhibition HIV/LASV” value (HIV-1/LASV pseudovirus) is reported as 83.87% and the “Inhibition HIV/EBOV” value (HIV-1/EBOV pseudovirus) is reported as 99.53%. For the same compound, the “Cell Viability” value (A549 cells) was 81.21%.
For `CN(C)CCCC(O)(c1ccccc1)c1cc2ccccc2nc1Oc1cccc2ccccc12` (centres unmarked) [SYL1635], the “Inhibition HIV/H5N1” value (HIV-1/H5N1 pseudovirus) was 97.52%, the “Inhibition HIV/LASV” value (HIV-1/LASV pseudovirus) was 99.31% and the “Inhibition HIV/EBOV” value (HIV-1/EBOV pseudovirus) was 99.63%. For the same compound, the “Cell Viability” value (A549 cells) was 11.15%.
In the case of `COc1nc2ccc(Br)cc2cc1C(c1ccccc1)C1(O)CCN(C)CC1` (centres unmarked) [SYL1636], the “Inhibition HIV/H5N1” value (HIV-1/H5N1 pseudovirus) is reported as 97.70%, the “Inhibition HIV/LASV” value (HIV-1/LASV pseudovirus) is reported as 98.04% and the “Inhibition HIV/EBOV” value (HIV-1/EBOV pseudovirus) is reported as 99.39%. The “Cell Viability” value (A549 cells) was 4.08%.
In the case of `CN(C)Cc1cccc(-c2cc3ccccc3nc2Oc2cccc3ccccc23)c1` [SYL1637], the “Inhibition HIV/H5N1” value (HIV-1/H5N1 pseudovirus) is reported as 97.92%, the “Inhibition HIV/LASV” value (HIV-1/LASV pseudovirus) is reported as 81.65% and the “Inhibition HIV/EBOV” value (HIV-1/EBOV pseudovirus) is reported as 99.81%. For the same compound, the “Cell Viability” value (A549 cells) was 80.11%.
In the case of `CN(C)Cc1cccc(-c2cc3cc(Br)ccc3nc2OCc2cccc3ccccc23)c1` [SYL1638], the “Inhibition HIV/H5N1” value (HIV-1/H5N1 pseudovirus) is reported as 98.27%, the “Inhibition HIV/LASV” value (HIV-1/LASV pseudovirus) is reported as 99.18% and the “Inhibition HIV/EBOV” value (HIV-1/EBOV pseudovirus) is reported as 99.91%. The “Cell Viability” value (A549 cells) was 18.62%.
